Calls of active or inactive are those of the source. The rule behind the calls is not given here.
Experiments:
HCT-116 [1] = test: Induction of cell cycle arrest in Homo sapiens (human) HCT116 cells assessed as S phase cells at 52.3 uM at 24 hr by flow cytometric analysis (reference value: 33.6 +/- 0.6 cells); assay type: functional
MCF7 [2] = test: Cytotoxicity against Homo sapiens (human) MCF7 cells at 100 uM after 24 hr by SRB assay; assay type: functional
HepG2 [3] = test: Cytotoxicity against Homo sapiens (human) HepG2 cells at 40 uM after 72 hr by SRB assay; assay type: functional
HepG2 [4] = test: Induction of cell cycle arrest in Homo sapiens (human) HepG2 cells assessed as S phase cells at 55 uM at 48 hr by flow cytometric analysis (reference value: 46.4 +/- 3.6 cells); assay type: functional
HCT-116 [5] = test: Cytotoxicity against Homo sapiens (human) HCT116 cells at 100 uM after 24 hr by SRB assay; assay type: functional
MCF7 [6] = test: Cytotoxicity against Homo sapiens (human) MCF7 cells at 20 to 100 uM by SRB assay; assay type: functional, cell-based; settings: TDE = time-dependent effect
HepG2 [7] = test: Cytotoxicity against Homo sapiens (human) HepG2 cells at 20 to 100 uM by SRB assay; assay type: functional, cell-based; settings: TDE = time-dependent effect
HCT-116 [8] = test: Induction of cell cycle arrest in Homo sapiens (human) HCT116 cells assessed as S phase cells at 52.3 uM at 48 hr by flow cytometric analysis (reference value: 33.6 +/- 0.6 cells); assay type: functional
HCT-116 [9] = test: Induction of cell cycle arrest in Homo sapiens (human) HCT116 cells assessed as increase in G0/G1 phase cells at 52.3 uM at 48 hr by flow cytometric analysis relative to control; assay type: functional
HCT-116 [10] = test: Cytotoxicity against Homo sapiens (human) HCT116 cells at 20 uM after 72 hr by SRB assay; assay type: functional, cell-based
HepG2 [11] = test: Cytotoxicity against Homo sapiens (human) HepG2 cells assessed as DNA fragmentation at 55 uM from 24 to 48 hr by agarose gel electrophoresis; assay type: functional, cell-based
HepG2 [12] = test: Induction of cell cycle arrest in Homo sapiens (human) HepG2 cells assessed as increase in G0/G1 phase cells at 55 uM at 24 hr by flow cytometric analysis relative to control; assay type: functional
HepG2 [13] = test: Cytotoxicity against Homo sapiens (human) HepG2 cells after 24 to 72 hr by SRB assay; assay type: functional, cell-based
HCT-116 [14] = test: Cytotoxicity against Homo sapiens (human) HCT116 cells after 24 to 72 hr by SRB assay; assay type: functional, cell-based
HCT-116 [15] = test: Induction of cell cycle arrest in Homo sapiens (human) HCT116 cells assessed as S phase cells at 52.3 uM at 16 hr by flow cytometric analysis (reference value: 33.6 +/- 0.6 cells); assay type: functional
MCF7 [16] = test: Cytotoxicity against Homo sapiens (human) MCF7 cells at 40 uM after 48 hr by SRB assay; assay type: functional
HepG2 [17] = test: Antiangiogenic activity against Homo sapiens (human) HepG2 cells assessed as reduction in VEGF level at 55 uM from 24 to 48 hr by ELISA relative to control; assay type: functional, cell-based
HCT-116 [18] = test: Cytotoxicity against Homo sapiens (human) HCT116 cells at 40 uM after 72 hr by SRB assay; assay type: functional
HepG2 [19] = test: Induction of apoptosis in Homo sapiens (human) HepG2 cells assessed as caspase9 cleavage at 55 uM at 16 hr by Western blot analysis; assay type: functional, cell-based
HeLa [20] = test: Cytotoxicity against Homo sapiens (human) HeLa cells at 20 uM after 72 hr by SRB assay; assay type: functional, cell-based
HeLa [21] = test: Cytotoxicity against Homo sapiens (human) HeLa cells at 100 uM after 24 hr by SRB assay; assay type: functional
HCT-116 [22] = test: Induction of apoptosis in Homo sapiens (human) HCT116 cells assessed as effect on Bcl2 level at 52.3 uM from 3 to 24 hr by Western blot analysis; assay type: functional, cell-based
MCF7 [23] = test: Cytotoxicity against Homo sapiens (human) MCF7 cells at 20 uM after 72 hr by SRB assay; assay type: functional, cell-based
HCT-116 [24] = test: Induction of cell cycle arrest in Homo sapiens (human) HCT116 cells assessed as increase in G0/G1 phase cells at 52.3 uM at 24 hr by flow cytometric analysis relative to control; assay type: functional
HepG2 [25] = test: Induction of cell cycle arrest in Homo sapiens (human) HepG2 cells assessed as G2/M phase cells at 55 uM at 48 hr by flow cytometric analysis (reference value: 4 +/- 0.9 cells); assay type: functional
HCT-116 [26] = test: Cytotoxicity against Homo sapiens (human) HCT116 cells assessed as DNA fragmentation at […] after 48 hr by agarose gel electrophoresis; assay type: functional, cell-based
HeLa [27] = test: Cytotoxicity against Homo sapiens (human) HeLa cells after 24 to 72 hr by SRB assay; assay type: functional, cell-based
HepG2 [28] = test: Cytotoxicity against Homo sapiens (human) HepG2 cells at 100 uM after 24 hr by SRB assay; assay type: functional
HepG2 [29] = test: Induction of apoptosis in Homo sapiens (human) HepG2 cells assessed as effect on Bcl2 level at 55 uM from 3 to 24 hr by Western blot analysis; assay type: functional, cell-based
HCT-116 [30] = test: Induction of apoptosis in Homo sapiens (human) HCT116 cells assessed as caspase9 cleavage at 52.3 uM at 16 hr by Western blot analysis; assay type: functional, cell-based
HCT-116 [31] = test: Cytotoxicity against Homo sapiens (human) HCT116 cells at 20 to 100 uM by SRB assay; assay type: functional, cell-based; settings: TDE = time-dependent effect
HCT-116 [32] = test: Antiangiogenic activity against Homo sapiens (human) HCT116 cells assessed as reduction in VEGF level at 52.3 uM after 24 hr by ELISA relative to control; assay type: functional; parameters: scale not given: the % may be the effect or the level left
HCT-116 [33] = test: Cytotoxicity against Homo sapiens (human) HCT116 cells after 48 hr by SRB assay; assay type: functional, cell-based; settings: HCT-116, 48 h
HCT-116 [34] = test: Induction of cell cycle arrest in Homo sapiens (human) HCT116 cells assessed as G2/M phase cells at 52.3 uM at 16 hr by flow cytometric analysis (reference value: 9.7 +/- 0.8 cells); assay type: functional
HepG2 [35] = test: Induction of cell cycle arrest in Homo sapiens (human) HepG2 cells assessed as increase in G0/G1 phase cells at 55 uM at 48 hr by flow cytometric analysis relative to control; assay type: functional
HCT-116 [36] = test: Antiangiogenic activity against Homo sapiens (human) HCT116 cells assessed as reduction in VEGF level at 52.3 uM after 48 hr by ELISA relative to control; assay type: functional; parameters: scale not given: the % may be the effect or the level left
HeLa [37] = test: Cytotoxicity against Homo sapiens (human) HeLa cells at 40 uM after 72 hr by SRB assay; assay type: functional
HepG2 [38] = test: Induction of cell cycle arrest in Homo sapiens (human) HepG2 cells assessed as S phase cells at 55 uM at 16 hr by flow cytometric analysis (reference value: 46.4 +/- 3.6 cells); assay type: functional
HepG2 [39] = test: Induction of cell cycle arrest in Homo sapiens (human) HepG2 cells assessed as G0/G1 phase cells at 55 uM at 16 hr by flow cytometric analysis (reference value: 50.4 +/- 1.7 cells); assay type: functional
MCF7 [40] = test: Cytotoxicity against Homo sapiens (human) MCF7 cells after 24 to 72 hr by SRB assay; assay type: functional, cell-based
HCT-116 [41] = test: Induction of cell cycle arrest in Homo sapiens (human) HCT116 cells assessed as G2/M phase cells at 52.3 uM at 24 hr by flow cytometric analysis (reference value: 9.7 +/- 0.8 cells); assay type: functional
HepG2 [42] = test: Induction of cell cycle arrest in Homo sapiens (human) HepG2 cells assessed as G2/M phase cells at 55 uM at 24 hr by flow cytometric analysis (reference value: 4 +/- 0.9 cells); assay type: functional
HepG2 [43] = test: Cytotoxicity against Homo sapiens (human) HepG2 cells at 20 uM after 72 hr by SRB assay; assay type: functional, cell-based
HepG2 [44] = test: Cytotoxicity against Homo sapiens (human) HepG2 cells after 48 hr by SRB assay; assay type: functional, cell-based; settings: HepG2, 48 h
HCT-116 [45] = test: Induction of cell cycle arrest in Homo sapiens (human) HCT116 cells assessed as G2/M phase cells at 52.3 uM at 48 hr by flow cytometric analysis (reference value: 9.7 +/- 0.8 cells); assay type: functional
HCT-116 [46] = test: Induction of cell cycle arrest in Homo sapiens (human) HCT116 cells assessed as G0/G1 phase cells at 52.3 uM at 16 hr by flow cytometric analysis (reference value: 58.2 +/- 3.7 cells); assay type: functional
HeLa [47] = test: Cytotoxicity against Homo sapiens (human) HeLa cells at 20 to 100 uM by SRB assay; assay type: functional, cell-based; settings: TDE = time-dependent effect
HepG2 [48] = test: Induction of cell cycle arrest in Homo sapiens (human) HepG2 cells assessed as G2/M phase cells at 55 uM at 16 hr by flow cytometric analysis (reference value: 4 +/- 0.9 cells); assay type: functional
HepG2 [49] = test: Induction of cell cycle arrest in Homo sapiens (human) HepG2 cells assessed as S phase cells at 55 uM at 24 hr by flow cytometric analysis (reference value: 46.4 +/- 3.6 cells); assay type: functional

`Cc1c(C)c2c(c(C)c1OC(=O)CCC(=O)O)CC[C@@](C)(CCC[C@H](C)CCC[C@H](C)CCCC(C)C)O2` [(+)-ALPHA-TOCOPHERYL SUCCINATE] was tested, and the Activity (HCT-116 [1]) was 19.9%, the Activity (MCF7 [2]) was 45% and the Activity (HepG2 [3]) was 15%. The Activity (HepG2 [4]) was 15.4%, the Activity (HCT-116 [5]) was 47% and the Activity (MCF7 [6]) was “tde”. The Activity (HepG2 [7]) was “tde”, the Activity (HCT-116 [8]) was 13.4% and the Activity (HCT-116 [9]) was 47.3%. For the same compound, the Activity (HCT-116 [10]) was “inactive”, the Activity (HepG2 [11]) was “Active” and the Activity (HepG2 [12]) was 27.4%. The Activity (HepG2 [13]) was “Dose-dependent effect”, the Activity (HCT-116 [14]) was “Dose-dependent effect” and the Activity (HCT-116 [15]) was 32.7%. For the same compound, the Activity (MCF7 [16]) was 14%, the Activity (HepG2 [17]) was “Active” and the Activity (HCT-116 [18]) was 48%. For the same compound, the Activity (HepG2 [19]) was “Active”, the Activity (HeLa [20]) was “inactive” and the Activity (HeLa [21]) was 65%. The Activity (HCT-116 [22]) was “inactive”, the Activity (MCF7 [23]) was “inactive” and the Activity (HCT-116 [24]) was 32.3%. The Activity (HepG2 [25]) was 1.8%, the Activity (HCT-116 [26]) was “Active” and the Activity (HeLa [27]) was “Dose-dependent effect”. The Activity (HepG2 [28]) was 55%, the Activity (HepG2 [29]) was “inactive” and the Activity (HCT-116 [30]) was “Active”. The Activity (HCT-116 [31]) was “tde”, the Activity (HCT-116 [32]) was 39% and the IC50 (HCT-116 [33]) was 52.3 µM. For the same compound, the Activity (HCT-116 [34]) was 9.5%, the Activity (HepG2 [35]) was 62.1% and the Activity (HCT-116 [36]) was 54%. For the same compound, the Activity (HeLa [37]) was 20%, the Activity (HepG2 [38]) was 38.4% and the Activity (HepG2 [39]) was 60%. The Activity (MCF7 [40]) was “Dose-dependent effect”, the Activity (HCT-116 [41]) was 4.4% and the Activity (HepG2 [42]) was 2.1%. The Activity (HepG2 [43]) was “inactive”, the IC50 (HepG2 [44]) was 55 µM and the Activity (HCT-116 [45]) was 2.7%. The Activity (HCT-116 [46]) was 58.7%, the Activity (HeLa [47]) was “tde” and the Activity (HepG2 [48]) was 2.9%. For the same compound, the Activity (HepG2 [49]) was 33.01%.

Source: ChEMBL document CHEMBL3046193, “Promising antitumor effect of alpha-tocopheryl succinate in human colon and liver cancer cells” (Med Chem Res, 2012)
